In patent publication US20120184006A1, “Reductase Enzymes” (UTAH STATE UNIVERSITY, priority 2011, published 2012):

Legend:
[1] = biological target: T1, fatty acyl-CoA reductase (FACoAR) from M. aquaeolei VT8 (Marinobacter nauticus (Marinobacter aquaeolei), UniProt A1U3L3); assay: Continuous spectrophotometric NADPH assay (decrease of NADPH at 340 nm); format: biochemical; conditions: for Rate of Reaction (nmol NADP^+ min^−1 mg proten^−1): 60 μm of the respective aldehyde as substrate; for % Specific Activity of Decanal: percent of the specific activity of decanal, 60 μm aldehyde
T1 sequence (A1U3L3 1-661): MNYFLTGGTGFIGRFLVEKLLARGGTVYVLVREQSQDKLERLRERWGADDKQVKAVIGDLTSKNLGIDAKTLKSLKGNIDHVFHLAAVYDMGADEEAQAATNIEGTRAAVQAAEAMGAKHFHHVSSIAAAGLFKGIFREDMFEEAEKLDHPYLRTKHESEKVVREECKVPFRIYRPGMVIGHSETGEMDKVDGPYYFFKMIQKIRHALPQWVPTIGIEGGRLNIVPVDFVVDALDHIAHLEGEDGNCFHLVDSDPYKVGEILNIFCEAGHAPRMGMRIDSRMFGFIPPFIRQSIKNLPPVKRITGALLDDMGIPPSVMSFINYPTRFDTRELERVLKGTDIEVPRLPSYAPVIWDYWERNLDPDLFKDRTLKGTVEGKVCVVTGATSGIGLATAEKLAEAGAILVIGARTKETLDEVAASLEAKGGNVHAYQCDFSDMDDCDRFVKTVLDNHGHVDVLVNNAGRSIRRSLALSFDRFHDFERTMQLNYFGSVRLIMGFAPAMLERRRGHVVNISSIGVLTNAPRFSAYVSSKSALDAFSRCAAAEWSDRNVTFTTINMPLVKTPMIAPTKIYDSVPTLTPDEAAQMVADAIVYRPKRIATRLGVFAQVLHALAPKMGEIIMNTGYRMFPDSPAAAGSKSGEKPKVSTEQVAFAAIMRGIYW
Experimental: (§1) All assays were conducted in a total volume of 1 mL. A buffer containing 50 mM NaCl, 20 mM Tris-HCl pH 7.0, and 0.5 mg/mL BSA was prepared along with a 1 mM stock of aldehyde dissolved in dimethyl sulfoxide (DMSO) or a 0.1 mM stock of the acyl-CoA, and […] NADPH. All components including protein were degassed in sealed vials and placed under an argon atmosphere. NADPH was degassed as the solid prior to the addition of degassed buffer. Each assay was conducted by adding 75 μL of the NADPH stock, 58 μg protein for acyl-CoA assays or 15 μg protein for aldehyde assays, varying concentrations of aldehyde or acyl-CoA and buffer to bring the final volume to 1 mL. Each sample was continuously monitored for the decrease of NADPH at 340 nm on a Varian 50 Bio UV-visible spectrophotometer (Walnut Creek, Calif.). Initial rates were calculated in Excel using the linear initial rates of reaction obtained from the spectrophotometric assays by obtaining the slope from the best. In line and calculating nmol of NADPH oxidized per second. (Microsoft, Redmond, Wash.). These initial rates were used to calculate Km and Vmax values using the Igor Pro software package (Wavemetrics, Lake Oswego, Oreg.) fitting the initial rates to the Hill equation (31). NADPH specific activity assays were conducted identically as described above using a fixed 60 μM concentration of the various aldehyde substrates or 6 μM of the various acyl-CoA substrates.

[2] = biological target: T1, fatty acyl-CoA reductase (FACoAR) from M. aquaeolei VT8; assay: Continuous spectrophotometric DTNB assay (release of free CoA); format: biochemical; conditions: for Rate of Reaction (nmol NTB^2− min^−1 mg protein^−1): 6 μM of the respective CoA as substrate; for % Specific Activity of Palmitoyl-CoA: percent of the specific activity of palmitoyl-CoA, 6 μM substrate
Experimental: Buffers and solutions were prepared as described above for NADPH assays. Each assay was conducted by adding 75 μL of the 2 mg/mL NADPH stock solution in buffer, 58 μg of protein, and 10 μL of a 10 mg/mL solution of DTNB in DMSO, varying concentrations of acyl-CoA and buffer to bring the volume to 1 mL. Reduction of acyl-CoA substrate was monitored by following the increase of the 2-nitro-5-thiobenzoate (NTB^2−) dianion concentration at 412 nm. […] These initial rates were used to calculate the apparent K, and Vmax values using the Igor Pro (Wavemetrics, Lake Oswego, Oreg.) software package fitting the initial rates to the Hill equation (Equation 1) where v is the initial velocity, Vmax is the maximum calculated velocity, [S]^n is the concentration of substrate and n is the Hill coefficient, K0.5^n is the approximation of Km or the approximate substrate concentration at which half of Vmax is obtained at a specific value of the Hill coefficient n. In the case of enzyme inhibition, a modified version of the Hill equation allowing for cooperative inhibition (Equation 2) where all of the coefficients are defined as for the Hill equation and the additional [i]^n is the concentration of inhibitor and n is the Hill coefficient. The Ki^n is the approximate concentration of inhibitor it takes to double the K0.5 at a specific value of the Hill coefficient n.

[3] = system: FALDR (fatty aldehyde reductase) from M. aquaeolei VT8; conditions: previously tested enzyme, aldehyde substrate; cited from earlier work
M. aquaeolei VT8 FACoAR = assay: Addition of detergents and reducing agents to the FACoAR kinetic assay; format: biochemical, Marinobacter aquaeolei VT8; conditions: varying concentrations (isopropanol 5%)
From the text: As part of our characterization, we attempted to alleviate the sigmoidal response of activity to substrate concentration by the addition of reducing agents and detergents. In the case of another type of acyl-CoA reductase, HMG-CoA reductase, the addition of reducing agents and/or detergents could limit, but not eliminate the sigmoidal kinetics related to cooperative binding. […] This seems to indicate the potential of some inter- or intra-protein interaction that is necessary for the activity to occur. To further investigate this possibility, the protein was analyzed by size exclusion chromatography to determine the native weight of the protein.

[4] = substrate: CCCCCCCCCCCCCCCC(=O)SCCNC(=O)CCNC(=O)[C@H](O)C(C)(C)COP(=O)(O)OP(=O)(O)OC[C@H]1O[C@@H](n2cnc3c(N)ncnc32)[C@H](O)[C@@H]1OP(=O)(O)O; assay: Continuous spectrophotometric DTNB assay (release of free CoA); format: biochemical, Marinobacter aquaeolei VT8
[5] = substrate: CCCC/C=C\CCCCCCCCCC=O; assay: Continuous spectrophotometric NADPH assay (decrease of NADPH at 340 nm); format: biochemical, Marinobacter aquaeolei VT8; conditions: pH 7.0
Experimental: as §1

[6] = substrate: CCCCCCCCCCCCCCCC(=O)SCCNC(=O)CCNC(=O)[C@H](O)C(C)(C)COP(=O)(O)OP(=O)(O)OC[C@H]1O[C@@H](n2cnc3c(N)ncnc32)[C@H](O)[C@@H]1OP(=O)(O)O; assay: as above; format: biochemical, Marinobacter aquaeolei VT8; conditions: other: FIG. 5, NADPH assay, acyl-CoA substrate; pH 7.0
Experimental: as §1

[7] = running text b50, fatty aldehyde reduction
[8] = other: FIG. 6, NADPH assay, aldehyde substrate

CCCCCCCC=O [Octanal]
Rate of Reaction (nmol NADP^+ min^−1 mg proten^−1) [1]: 5200 ± 1500 nmol NADP^+ min^−1 mg proten^−1
% Specific Activity of Decanal [1]: 33%

CCCCCCCCCCCCCC(=O)SCCNC(=O)CCNC(=O)[C@H](O)C(C)(C)COP(=O)(O)OP(=O)(O)OC[C@H]1O[C@@H](n2cnc3c(N)ncnc32)[C@H](O)[C@@H]1OP(=O)(O)O [Myristoyl-CoA]
Rate of Reaction (nmol NTB^2− min^−1 mg protein^−1) [2]: 34.1 ± 2.1 nmol NTB^2− min^−1 mg protein^−1
% Specific Activity of Palmitoyl-CoA [2]: 58%

CCCC/C=C\CCCCCCCCCC=O [Cis-11-hexadecenal]
Rate of Reaction (nmol NADP^+ min^−1 mg proten^−1) [1]: 9910 ± 600 nmol NADP^+ min^−1 mg proten^−1
n (Hill coefficient) ([1]; FIG. 6, NADPH assay, aldehyde substrate): 2±0.8
Km ([1]; fatty aldehyde reduction, read-out: Km (Hill equation)): 25 µM
% Specific Activity of Decanal [1]: 63%
Vmax [1, 7]: ~10 µmol/min/mg
cooperativity n [1, 7]: ~2
Km [3]: 177 µM
Vmax [3]: approximately 60 nmols min^−1 mg^−1

OCCS [β-mercaptoethanol]
effect on FACoAR activity (M. aquaeolei VT8 FACoAR): inhibited activity

CC=O [Acetaldehyde]
Rate of Reaction (nmol NADP^+ min^−1 mg proten^−1) [1]: 54 ± 6.0 nmol NADP^+ min^−1 mg proten^−1
% Specific Activity of Decanal [1]: <1%

Triton X-100
effect on FACoAR activity (M. aquaeolei VT8 FACoAR): inhibited activity

CCC=O [Propanal]
Rate of Reaction (nmol NADP^+ min^−1 mg proten^−1) [1]: 43 ± 6.0 nmol NADP^+ min^−1 mg proten^−1
% Specific Activity of Decanal [1]: <1%

CCCCCCCCCC=O [Decanal]
Rate of Reaction (nmol NADP^+ min^−1 mg proten^−1) [1]: 15800 ± 860 nmol NADP^+ min^−1 mg proten^−1
% Specific Activity of Decanal [1]: 100%

CCCCCCCC(=O)SCCNC(=O)CCNC(=O)[C@H](O)C(C)(C)COP(=O)(O)OP(=O)(O)OC[C@H]1O[C@@H](n2cnc3c(N)ncnc32)[C@H](O)[C@@H]1OP(=O)(O)O [Octanoyl-CoA]
Rate of Reaction (nmol NTB^2− min^−1 mg protein^−1) [2]: 18.8 ± 0.83 nmol NTB^2− min^−1 mg protein^−1
% Specific Activity of Palmitoyl-CoA [2]: 34%

CC(C)O [isopropanol]
effect on FACoAR activity (M. aquaeolei VT8 FACoAR): inhibited activity

CCCCCCCCCCCC=O [Dodecanal]
Rate of Reaction (nmol NADP^+ min^−1 mg proten^−1) [1]: 11700 ± 250 nmol NADP^+ min^−1 mg proten^−1
% Specific Activity of Decanal [1]: 74%

CCCCC/C=C\C/C=C\C/C=C\C/C=C\CCCC(=O)SCCNC(=O)CCNC(=O)[C@H](O)C(C)(C)COP(=O)(O)OP(=O)(O)OC[C@H]1O[C@@H](n2cnc3c(N)ncnc32)[C@H](O)[C@@H]1OP(=O)(O)O [Arachidonoyl-CoA]
Rate of Reaction (nmol NTB^2− min^−1 mg protein^−1) [2]: 50.7 ± 3.66 nmol NTB^2− min^−1 mg protein^−1
% Specific Activity of Palmitoyl-CoA [2]: 93%

CCCCCCCCCCCC(=O)SCCNC(=O)CCNC(=O)[C@H](O)C(C)(C)COP(=O)(O)OP(=O)(O)OC[C@H]1O[C@@H](n2cnc3c(N)ncnc32)[C@H](O)[C@@H]1OP(=O)(O)O [Lauroyl-CoA]
Rate of Reaction (nmol NTB^2− min^−1 mg protein^−1) [2]: 44.0 ± 6.3 nmol NTB^2− min^−1 mg protein^−1
% Specific Activity of Palmitoyl-CoA [2]: 80%

CCCCCC=O [Hexanal]
Rate of Reaction (nmol NADP^+ min^−1 mg proten^−1) [1]: 1540 ± 30.0 nmol NADP^+ min^−1 mg proten^−1
% Specific Activity of Decanal [1]: 10%

CCCCCCCCCCCCCCCCCC(=O)SCCNC(=O)CCNC(=O)[C@H](O)C(C)(C)COP(=O)(O)OP(=O)(O)OC[C@H]1O[C@@H](n2cnc3c(N)ncnc32)[C@H](O)[C@@H]1OP(=O)(O)O [Stearoyl-CoA]
Rate of Reaction (nmol NTB^2− min^−1 mg protein^−1) [2]: 37.6 ± 3.5 nmol NTB^2− min^−1 mg protein^−1
% Specific Activity of Palmitoyl-CoA [2]: 69%

O=Cc1ccc2ccccc2c1 [2-Naphthaldehyde]
Rate of Reaction (nmol NADP^+ min^−1 mg proten^−1) [1]: 5280 ± 10 nmol NADP^+ min^−1 mg proten^−1
% Specific Activity of Decanal [1]: 3%

CCCCCCCC/C=C\CCCCCCCC(=O)SCCNC(=O)CCNC(=O)[C@H](O)C(C)(C)COP(=O)(O)OP(=O)(O)OC[C@H]1O[C@@H](n2cnc3c(N)ncnc32)[C@H](O)[C@@H]1OP(=O)(O)O [Oleyl-CoA]
Rate of Reaction (nmol NTB^2− min^−1 mg protein^−1) [2]: 41.5 ± 3.1 nmol NTB^2− min^−1 mg protein^−1
% Specific Activity of Palmitoyl-CoA [2]: 76%

B1: fatty acyl-CoA reductase (FACoAR) from M. aquaeolei VT8 (Marinobacter nauticus VT8) (protein)
chain: T1 sequence (A1U3L3 1-661)
K0.5 ([4]; acyl-CoA reduction, data of both DTNB and NADPH assays): 4 µM
Km ([4]; other: FIG. 5, DTNB assay, Hill fit, substrate): 4 ± 0.3 µM
K0.5 ([5]; fatty aldehyde reduction): 25 µM
Km [5, 8]: 48 ± 7 µM
Vmax [5, 8]: 7.7±0.6 μmol min^−1 mg of protein^−1
Km [6]: 4.0 ± 0.2 µM
